Converted amounts (≈) assume the structure as drawn. Like-named read-outs stand apart in the source and are kept apart here. Blank lines part the entries; values can stand above or below the compound they belong to.
Assays:
[1] = Systemic half-life after oral or intravenous administration in rats; type: in vivo, rats (Sprague-Dawley); conditions: for Systemic omeprazole half-life / half-life: rats; for half-life: Sprague-Dawley, rat, blood
Protocol: (§1) Blood concentrations of the compounds omeprazole, lansoprazole, pantoprazole, rabeprazole, and test compounds were quantified using an achiral liquid chromatography tandem mass spectrometry method (LC-MS/MS). Systemic pharmacokinetic parameters were determined for omeprazole or lansoprazole using non-compartmental analysis in Watson® version 6.3, available from InnaPhase Corporation, Philadelphia, Pa.

[2] = Oral administration of solid dosage form to a person suffering from heartburn; type: in vivo; conditions: 40 mg compound 1, 50% as sodium salt, oral daily
Protocol: A solid dosage form comprising 40 mg of compound 1, having 50% of the prodrug in the form of the sodium salt, is orally administered daily to a person suffering from heartburn. Relief of pain begins to occur within about 1 day, and continues as long as the person takes the dosage form.

[3] = Stability profile in buffered aqueous solutions; type: physicochemical; conditions: 25° C.
[4] = Degradation in simulated gastric fluid; type: physicochemical; conditions: simulated gastric fluid (USP, pepsin); pH 1.2
Protocol: Simulated gastric fluid was prepared as specified by USP (http://www.uspnf.com/uspnf/usp26nf21/default.htm, Reagents>Solutions>Test Solutions>Gastric Fluid, Simulated). To make 200 mL of simulated gastric fluid, 0.4 g of sodium chloride and 0.64 g of purified pepsin, with an activity of 800 to 2500 units per mg of protein, was dissolved in 1.4 mL of hydrochloric acid and sufficient water. The solution was adjusted to the appropriate pH with hydrochloric acid.
The pH dependence of the half-life of compound 1 in the simulated gastric fluid is depicted in Table 4A.

Caco-2 cells = test: Membrane permeability (Papp) across Caco-2 cell monolayer, apical to basolateral; type: in vitro ADME; conditions: Caco-2, apical to basolateral, 10 μM, 37° C.
Protocol: (§2) Determination of membrane permeability in all examples described herein was accomplished by the following procedure. This procedure is also used to determine whether a given prodrug falls within the scope of those claims given herein which relate to membrane permeability.
(§3) Caco-2 cells were seeded on Costar™ 12 mm diameter, 0.4 μm pore size transwell filters, and were cultured at 37° C., 5% CO2 in a humidified tissue culture chamber.
(§4) DMEM was equilibrated as a transport buffer in 37° C. water bath an hour before experiment. The cells were then equilibrated in transport buffer for 1 hr at 37° C.
(§5) Dosing solution (10 μM) was prepared by adding a 20 μL aliquot of a 10 mM stock solution of the prodrug to 20 mL of transport buffer.
(§6) Transport across Caco-2 cell monolayer was measured at 37° C., in the apical to basolateral direction (n=3).
(§7) Transport buffer was removed from both apical and basolateral compartment of filters. Dosing solution (0.2 mL) was added to the apical compartment of the cell layers on transwell filters, and 0.8 ml fresh pre-warmed transport buffer was added to basolateral compartment. Timing was started for transport, and at 5, 20, and 60 min after transport started, sample fluid (400 μL) was collected from the basolateral compartment. Fresh transport buffer (400 μL) was added back to the basolateral compartment, and the fluid was thoroughly mixed.
(§8) Transport samples, dosing solution, and standards(100 μL) each were mixed with 100 μl of a 500 ng/ml internal standard (Lansoprazole-D) for LC-MS/MS analysis, and part of each sample (100 μL) was vortexed and transferred into glass LC-MS/MS vials for analysis.
(§9) The apparent permeability coefficient (Papp, cm/sec), otherwise known herein as the membrane permeability, is determined from the following relationship: Papp=J/(ACo) where J (pmol/min) is the transport rate, meaning the rate of prodrug movement through the cell layer, A (cm^2) is the filter surface area, and Co (μM) is the initial dosing concentration.
(§10) The transport rate J, is calculated as the slope of the linear regression fit for the transport amount over time data using Microsoft Excel® 97 SR-2 (Microsoft Corp. Redmond, Wash.).
(§11) Lucifer yellow (LY) was used as a paracellular permeability reference standard to determine integrity of cell layers used in the experiments. LY transport in the apical to basolateral direction was carried out in the same manner as described above. Fluorescence level in basolateral fluid sampled at 5, 20, and 60 min post dose was determined using Fluostar Galaxy (BMG Labtechnologies, Durham, N.C.) at excitation/emission wavelengths of 485/520 nm. A standard curve covering the range from 0.002 to 0.5 mg/mL is constructed to quantify the amount of LY in the transport sample to calculate permeability coefficient (Papp).

[5] = Systemic half-life after oral or intravenous administration in dogs; type: in vivo, dogs (beagle); conditions: for half-life: beagle, dog, blood
Protocol: as §1

[6] = Hygroscopicity on storage; type: physicochemical; conditions: 14 days of storage at 25° C. at 75% relative humidity
Protocol: The physicochemical properties of compound 1 were analyzed.

[7] = Systemic omeprazole after enteric-coated or regular capsules in dogs; type: in vivo; conditions: Dog, oral capsule of sodium salt of compound 1
Protocol: (§12) The bioavailability of compound 1 in enterically coated and non enterically coated dosage forms was investigated for dogs and monkeys. Regular and enteric-coated size 3 HPMC capsules (Capsugel, Morris Plains, N.J.) containing compound 1 were prepared by placing the appropriate amount of the sodium salt of compound 1 in the capsule. The enteric-coating material was prepared by dissolving cellulose acetate phthalate in a mixture of isopropyl alcohol and dichloromethane. The entire capsule was dipped in the enteric-coating material, and the isopropyl alcohol and dichloromethane were allowed to evaporate. The dosage forms were administered to the animals and the concentration of the omeprazole in the blood was determined as described in the oral bioavailability determination of Example 2. The maximum concentration of omeprazole (Cmax) and the total area under the curve (AUC) for the animals receiving both enterically coated and non-enterically coated oral dosage forms is presented in Table 4B. In both dogs and monkeys, both the Cmax and the AUC are higher for the non-enterically coated dosage form.

[8] = Systemic omeprazole after enteric-coated or regular capsules in monkeys; type: in vivo; conditions: Monkey, oral capsule of sodium salt of compound 1
Protocol: as §12

[9] = Solubility profile in buffered aqueous solutions; type: physicochemical; conditions: 25° C.
Excerpt: While not intending to be bound in any way by theory, it is believed that this improvement in solubility is due to the deprotonation of a sufficient quantity of the acid.

[10] = Membrane permeability (Papp) across Caco-2 cell monolayer, apical to basolateral; type: in vitro ADME; conditions: human, Caco-2, apical to basolateral, 37° C.
Protocol: as §2, §3, §4, §5, §6, §7, §8, §9, §10, §11

[11] = somewhat buffer dependent, Kromer et al., Ekpe et al., cited from earlier work
[12] = intravenous, equivalent omeprazole dose 1 mg/kg
[13] = oral, equivalent omeprazole dose 10 mg/kg
[14] = pH 3, Citric Acid (0.1 M)/Na2HPO4 (0.2 M)
[15] = pH 5, Citric Acid (0.1 M)/Na2HPO4 (0.2 M)
[16] = pH 7, sodium phosphate (0.1-0.2 M)
[17] = pH 7.4, sodium phosphate (0.1-0.2 M)
[18] = pH 9, sodium phosphate (0.1-0.2 M)
[19] = pH 10, sodium phosphate (0.1-0.2 M)
[20] = oral solution, systemic half-life of the proton pump inhibitor, unit inferred, read-out: Rat T1/2 PPI (converted)
[21] = po, Table 2D, read-out: t1/2 (systemic half-life in dogs after oral administration) (converted)
[22] = po, oral solution, systemic half-life of the proton pump inhibitor, unit inferred, read-out: Dog T1/2 PPI (converted)

- Prodrug in the bloodstream 5 minutes after intravenous administration ([1]; rats (Table 2A study), intravenous, 5 minutes): not detected
- Systemic omeprazole half-life [1, 12]: 10.8 min
- Systemic omeprazole half-life [1, 13]: 102 min
- Degradation Rate Constant (k) ([3]; pH 1, 0.1 M HCl): 0.194 h⁻¹
- Half-life (t1/2) ([3]; pH 1, 0.1 M HCl): 3.6 h
- Shelf life (t90%) ([3]; pH 1, 0.1 M HCl): 0.5 h
- Degradation Rate Constant (k) [3, 14]: 0.009 h⁻¹
- Half-life (t1/2) [3, 14]: 78.0 h
- Shelf life (t90%) [3, 14]: 11.9 h
- Degradation Rate Constant (k) [3, 15]: 0.008 h⁻¹
- Half-life (t1/2) [3, 15]: 89.2 h
- Shelf life (t90%) [3, 15]: 13.6 h
- Degradation Rate Constant (k) [3, 16]: 0.002 h⁻¹
- Half-life (t1/2) [3, 16]: 286.8 h
- Shelf life (t90%) [3, 16]: 43.6 h
- Degradation Rate Constant (k) [3, 17]: 0.002 h⁻¹
- Half-life (t1/2) [3, 17]: 291.2 h
- Shelf life (t90%) [3, 17]: 44.3 h
- Degradation Rate Constant (k) [3, 18]: 0.030 h⁻¹
- Half-life (t1/2) [3, 18]: 23.0 h
- Shelf life (t90%) [3, 18]: 3.5 h
- Degradation Rate Constant (k) [3, 19]: 0.298 h⁻¹
- Half-life (t1/2) [3, 19]: 2.3 h
- Shelf life (t90%) [3, 19]: 0.4 h
- Half-life in Simulated Gastric Fluid [4]: 180 min
- Permeability (Caco-2 cells): 0.12 ×10⁻⁶ cm/s
- Systemic omeprazole half-life [5, 12]: 60 min
- Dog T1/2 PPI ([5]; oral solution, systemic half-life of the proton pump inhibitor, unit inferred): 125 min
- t1/2 (systemic half-life in dogs after oral administration) ([5]; oral, Table 2D): 144 min
- Systemic omeprazole half-life [5, 13]: 144 min
- weight gain [6]: 9%
- AUC Omeprazole/Dose ([7]; Enteric Coating): 82.2 ± 18.4 ng·h/mL/mg/kg
- Cmax Omeprazole/Dose ([7]; Enteric Coating): 22.5 ± 7.3 ng/mL/mg/kg
- AUC Omeprazole/Dose ([7]; Regular Capsule): 91.3 ± 32.9 ng·h/mL/mg/kg
- Cmax Omeprazole/Dose ([7]; Regular Capsule): 29.2 ± 11.8 ng/mL/mg/kg
- AUC Omeprazole/Dose ([8]; Enteric Coating): 18.9 ± 7.9 ng·h/mL/mg/kg
- Cmax Omeprazole/Dose ([8]; Enteric Coating): 6.09 ± 1.04 ng/mL/mg/kg
- AUC Omeprazole/Dose ([8]; Regular Capsule): 19.7 ± 8.8 ng·h/mL/mg/kg
- Cmax Omeprazole/Dose ([8]; Regular Capsule): 14.0 ± 17.1 ng/mL/mg/kg
- Solubility ([9]; pH 1, 0.1 M HCl): 1.8 mg/mL (≈ 3.22 mM)
- Solubility [9, 14]: 0.4 mg/mL (≈ 0.715 mM)
- Solubility [9, 15]: >50 mg/mL
- Solubility [9, 16]: >50 mg/mL
- Solubility [9, 18]: >50 mg/mL
SMILES: COc1ccc2c(c1)nc([S+]([O-])Cc1ncc(C)c(OC)c1C)n2S(=O)(=O)c1ccc(OCC(=O)O)cc1 (centres unmarked) [Compound 1]
- Relief of pain begins to occur [2]: ≤ 1 days

- half-life [1, 20]: 30.6 min
- Papp A→B at 60 min, 10 μM [10]: 15 ×10⁻⁶ cm/s
- half-life [5, 21]: 34.2 min
- half-life [5, 22]: 34.4 min
SMILES: Cc1c(OCC(F)(F)F)ccnc1C[S+]([O-])c1nc2ccccc2[nH]1 (centres unmarked) [Lansoprazole, reference compound]

- half-life ([1]; intravenous, equivalent omeprazole dose 1 mg/kg, read-out: Systemic omeprazole half-life (converted)): 9 min
- half-life [1, 20]: 18.5 min
- half-life ([1]; oral, equivalent omeprazole dose 10 mg/kg, read-out: Systemic omeprazole half-life (converted)): 18.6 min
- Papp A→B at 60 min, 10 μM [10]: 13 ×10⁻⁶ cm/s
- half-life ([5]; iv, 1 mg/kg, intravenous, equivalent omeprazole dose 1 mg/kg, read-out: Systemic omeprazole half-life (converted)): 36 min
- half-life ([5]; po, 10 mg/kg, oral, equivalent omeprazole dose 10 mg/kg, read-out: Systemic omeprazole half-life (converted)): 42 min
- half-life [5, 21]: 42 min
- half-life [5, 22]: 41.8 min
SMILES: COc1ccc2[nH]c([S+]([O-])Cc3ncc(C)c(OC)c3C)nc2c1 (centres unmarked) [Omeprazole, reference compound]
- typical half-life (aqueous stability) ([11]; pH 5): about 1 hour
- typical half-life (aqueous stability) ([11]; pH 7): about 40 hours

Source: patent US20050075371A1, “Methods and compositions for the oral administration of prodrugs of proton pump inhibitors” (ALLERGAN, INC., priority 2003, published 2005)
